This note sets out measurements from patent publication US20060167106A1, “Compounds acting at the centrosome” (priority 2004, published 2006).

One assay deals with 26S proteasome. Kind of assay: Proteasome-sensor cells (HEK-293, GFP chimera), fluorescence imaging. To be noted: HEK-293, 0.5 μM, 24 hours. In kind it is cell-based. The source says:
Specifically, the proteasome-sensor cells are HEK-293 cells stably transfected with a vector (proteasome-sensor vector) that encodes naturally-occurring reef coral Zoanthus sp. green fluorescent protein (GFP) fused to a specific degradation motif that targets the fusion protein for removal by the 26S proteasome. The background fluorescence observed in normal cells with active proteasomes is low. When proteasomes are inhibited, the fluorescent protein quickly accumulates. […] Millennium Pharmaceuticals, Inc., Cambridge, Mass.). […] Velcade (Millennium Pharmaceuticals Inc.) was used as a positive control in this assay (at 5 nM, 50 nM, 500 nM or 5 μM). Velcade stock solution was prepared according to the manufacturer's instructions. GFP fluorescence of the cells was imaged at various time points using a standard filter for FITC with the Nikon TE300 microscope/digital imaging system described herein.

For assay [1], the target named is T1, bovine red blood cell 20S proteasome (Bos taurus, UniProt Q32KL2).
T1 construct: bovine red blood cell 20S proteasome; purchased Calbiochem; host or cells: purified from bovine red blood cells
Description: 20S Proteasome Assay (in vitro, Suc-Leu-Val-Tyr-AMC). In kind it is biochemical. To be noted: isolated 20S proteasome. Here is the method:
190 μl of reaction buffer (500 mM HEPES, 10 nM EDTA, pH 7.6), containing 0.03% SDS was pre-incubated for 5 minutes at 37° C. in the presence of 0.2 μg of bovine red blood cell 20S proteasome (Calbiochem, San Diego, Calif.) for temperature equilibration. Subsequently, inhibitors or Compound 1 were added to the reaction mixture at a final DMSO concentration of 0.5%. The reaction was initiated by adding 10 μl of the peptide-AMC substrate (Calbiochem, San Diego, Calif.) to each well. The emitted fluorescence was then measured every third minute at 37° C. for 90 minutes by a fluorescence plate reader (FlexStation II, Molecular Devices, Sunnyvale, Calif.) at 460 nm (λex360 nm) wavelength.
The buffers and reagents for the assay were purchased from Calbiochem (20S Proteasome Assay Kit; Calbiochem, San Diego, Calif.). The principle of the assay is that the release of free AMC (7-Amino-4-methylcoumarin) following degradation of the substrate results in a fluorescent signal that is a measure of proteasome activity. The quantitative analysis of 20S proteasome activity was assayed as described.

Another assay relates to CHO-α-tubulin-YFP cells. Kind of assay: α-tubulin-YFP localization in CHO-α-tubulin-YFP cells (fluorescence imaging). It is filed as cell-based, Chinese hamster. As to conditions: for accumulation of α-tubulin-YFP in the nucleus: 8 hours post-treatment; for accumulation of tubulin at the centrosomes versus in the nucleus (overall statement): cells treated, concentration not given. The source says: Wild-type Chinese Hamster Ovary cells (WT CHO) cells were maintained in Ham's F-12 medium supplemented with 10% fetal bovine serum (FBS; HyClone, Logan, Utah). Cells of low density (˜20%) growing on 2-well chambered cover-slips (Labtek (Campbell, Calif.) or Fisher Scientific) were transfected with a mammalian expression vector encoding α-tubulin-YFP (Clontech, Palo Alto, Calif.) with the use of FuGENE 6 (Roche Molecular Biochemicals, Indianapolis, Ind.), according to the manufacturer's instructions. Twenty-four hours after transfection, the cells were cultured in 400 μg/ml G418 (Invitrogen, Carlsbad, Calif.)-containing selection medium for 2 weeks. Living cells were examined using a fluorescent microscope for α-tubulin-YFP expression. Cells in single colonies containing microtubules labeled with α-tubulin-YFP were lifted and expanded in G418-containing medium. Expression of α-tubulin-YFP was confirmed by the presence of the tubulin-YFP labeled microtubule pattern identical to immunostained microtubule pattern of non-transfected cells, as well as by subjecting the cells to Western blot analysis using an anti-GFP antibody (Roche Molecular Biochemicals, Basel, Switzerland) and confirming the correct mass of the α-tubulin-YFP chimera protein. Expressed tubulin-YFP was detected as a single band in Western blots. The tubulin-YFP expressing cell lines (referred as CHO-α-tubulin-YFP cells) were used in the studies.
CHO-α-tubulin-YFP cells were cultured in 2-well chambered cover-slips (Labtek (Campbell, Calif.) or Fisher Scientific) 24 hours before treatment. For comparison of the centrosomal effects of treatment with Compound 1, Compound 1+Taxol, and Taxol, CHO-α-tubulin-YFP cells were treated with Compound 1, Compound 1+Taxol, Taxol, or equivalent concentrations of DMSO-containing media for various time periods before imaging. For comparison of the effects of Compound 1 and known proteasome inhibitors on centrosomes, the nucleus, and perinuclear regions, CHO-α-tubulin-YFP cells were treated with Compound 1, ALLN (Calbiochem, San Diego, Calif.), lactacystin (Calbiochem, San Diego, Calif.) or MG132 (Calbiochem, San Diego, Calif.), and imaged at various time points from 3 hours to 24 hours after treatment.
Tubulin-YFP fluorescence in living cells or fixed cells was captured using a standard filter for FITC and objectives of 20× or 60× magnification on a Nikon TE300 microscope with a Leica DC50 color digital camera (Leica, Bannockburn, Ill.) or a CoolSnap HQ Monochrome CCD camera (Photonetrics, Tucson, Ariz.). The Leica DC50 and CoolSnapHQ cameras were controlled with Leica DC50 software and MetaVue/MetaMorph software, respectively (Universal Imaging Corp, Downingtown, Pa.).
CHO-α-tubulin-YFP cells were cultured in 2-well chambered cover-slips (Labtek (Campbell, Calif.) or Fisher Scientific) 24 hours before treatment. For comparison of effects on the centrosome, nucleus, and perinuclear regions, cells were treated with Compound 1 and known proteasome inhibitors including ALLN, MG132, Lactacystin, MG115, clasto-Lactacystin β-Lactone (cLβL), and Epoxomicin (10 μM final concentration for all except ALLN, which was used at 100 μM final concentration) (proteasome inhibitors were from Calbiochem, San Diego, Calif.) and imaged at various time points up to 24 hours during treatment.
Tubulin-YFP fluorescence in living cells or fixed cells was captured using a standard filter for FITC and objectives of 20× or 60× magnification on the Nikon TE300 microscope/digital imaging system.

Entries after “also recorded” stand apart in the source; their conditions may differ. Non-standard residues stand in square brackets, D forms with d. Residues, ends and D or L forms follow the SMILES beside them. *: point of attachment. Nva = CCC[C@H](N)C(=O)O; Cbz = O=C(OCc1ccccc1)*

On to `CN(NC(=O)CC(=O)NN(C)C(=S)c1ccccc1)C(=S)c1ccccc1` [Compound 2], for which the “accumulation of proteasome-sensor protein in cells” value with 26S proteasome was “accumulation of proteasome-sensor protein in cells”. Further, the “proteasome inhibitory activity in vitro” value in assay [1] (50 μM) is “neither Compound 1 nor its salt form, Compound 2, displayed significant proteasome inhibitory activity”.

On to `CN(NC(=O)CC(=O)NN(C)C(=S)c1ccccc1)C(=O)c1ccccc1` [Compound 3], for which the “accumulation of tubulin-YFP at the centrosomes” value (“accumulation of tubulin-YFP” for short) in the assay on CHO-α-tubulin-YFP cells (CHO cells, 5 μM, 4 hours) is “lack of accumulation of tubulin-YFP at the centrosomes”.

As to `Cc1cc(NC(=O)C(=O)c2cc(Cc3ccc(C#N)cc3)n3ccccc23)sn1` [Compound 4], in the assay on CHO-α-tubulin-YFP cells (CHO cells, 10 μM, 24 hours), the “accumulation of tubulin-YFP” value is recorded as “lack of accumulation of tubulin-YFP at the centrosomes”.

For `C/C1=C/C[C@@H](/C(C)=C/c2csc(C)n2)OC(=O)C[C@H](O)C(C)(C)C(=O)[C@H](C)[C@@H](O)[C@@H](C)CCC1` [Epothilone D], the “accumulation of tubulin-YFP” value in the assay with CHO-α-tubulin-YFP cells (CHO cells, 10 μM, 24 hours) is listed as “lack of accumulation of tubulin-YFP at the centrosomes”.

Turning to `CC[C@H](C)[C@H](NC(=O)[C@H]([C@@H](C)CC)N(C)C(C)=O)C(=O)N[C@H](C(=O)N[C@@H](CC(C)C)C(=O)[C@@]1(C)CO1)[C@@H](C)O` [Epoxomicin], the “accumulation of α-tubulin-YFP in the nucleus” value in the assay with CHO-α-tubulin-YFP cells (CHO cells, 10 μM) is on record as “accumulation of α-tubulin-YFP in the nucleus; also recorded: caused the accumulation of YFP-tubulin in the nucleus”. In addition, the “accumulation of tubulin at the centrosomes versus in the nucleus (overall statement)” value in the assay on CHO-α-tubulin-YFP cells is “both accumulation of tubulin at the centrosomes and in the nucleus”.

Consider `CC(=O)N[C@@H](CSC(=O)[C@]1([C@@H](O)C(C)C)NC(=O)[C@H](C)[C@@H]1O)C(=O)O` [Lactacystin], for which the “accumulation of α-tubulin-YFP at the centrosomes” value with CHO-α-tubulin-YFP cells (CHO cells, 10 μM, 5 hours) is “accumulation of α-tubulin-YFP at the centrosomes and perinuclear regions”. The “accumulation of α-tubulin-YFP in the nucleus” value with CHO-α-tubulin-YFP cells (CHO cells, 10 μM) is recorded as “accumulation of α-tubulin-YFP in the nucleus; also recorded: caused the accumulation of YFP-tubulin in the nucleus”. Besides, the “accumulation of tubulin-YFP” value in the assay on CHO-α-tubulin-YFP cells (CHO cells, 10 μM, 24 hours) is “accumulation of tubulin-YFP at the centrosomes”. Further, the “accumulation of tubulin in the centrosomes (overall statement)” value in the assay with CHO-α-tubulin-YFP cells (CHO-tubulin-YFP cells, concentration and time not given) is “caused accumulation of tubulin-YFP at the centrosomes and in the perinuclear region”. Further, the “accumulation of tubulin at the centrosomes versus in the nucleus (overall statement)” value in the assay on CHO-α-tubulin-YFP cells is “both accumulation of tubulin at the centrosomes and in the nucleus”. Moreover, the “proteasome inhibitory activity in vitro (overall statement)” value in assay [1] was “exhibited proteasome inhibitory activity”. For the same compound, the “proteasome activity in vitro” value in assay [1] (5 nM) is given as “detectable decrease in proteasome activity”.

Regarding `CCC[C@@H](C=O)NC(=O)[C@H](CC(C)C)NC(=O)[C@H](CC(C)C)NC(=O)OCc1ccccc1` [MG115] (Cbz-Leu-Leu-[Nva]-aldehyde), the “accumulation of α-tubulin-YFP in the nucleus” value in the assay with CHO-α-tubulin-YFP cells (CHO cells, 10 μM) was “caused the accumulation of YFP-tubulin in the nucleus”; with CHO-α-tubulin-YFP cells (CHO cells, 10 μM, listed as MG-115) it was “accumulation of α-tubulin-YFP in the nucleus”. For the same compound, the “accumulation of tubulin at the centrosomes versus in the nucleus (overall statement)” value in the assay on CHO-α-tubulin-YFP cells is “both accumulation of tubulin at the centrosomes and in the nucleus”.

As for `CC[C@]1(O)C[C@H]2CN(CCc3c([nH]c4ccccc34)[C@@](C(=O)OC)(c3cc4c(cc3OC)N(C=O)[C@H]3[C@@](O)(C(=O)OC)[C@H](OC(C)=O)[C@]5(CC)C=CCN6CC[C@]43[C@@H]65)C2)C1` [Vincristine], the “accumulation of tubulin-YFP” value in the assay on CHO-α-tubulin-YFP cells (CHO cells, 1 μM, 24 hours) is recorded as “lack of accumulation of tubulin-YFP at the centrosomes”.

Regarding `CC(C)[C@H](O)[C@@]12NC(=O)[C@H](C)[C@@H]1OC2=O` [clasto-Lactacystin β-Lactone], the “accumulation of α-tubulin-YFP in the nucleus” value in the assay with CHO-α-tubulin-YFP cells (CHO cells, 10 μM) was “accumulation of α-tubulin-YFP in the nucleus; also recorded: caused the accumulation of YFP-tubulin in the nucleus”. The “accumulation of tubulin at the centrosomes versus in the nucleus (overall statement)” value in the assay with CHO-α-tubulin-YFP cells was “both accumulation of tubulin at the centrosomes and in the nucleus”.
